# According to US10981932B2, “Macrocyclic indole derivatives” (Bayer Aktiengesellschaft, priority 2016, dated 2021):
# Counter-ions that a name gives are not always drawn. Like-named read-outs stand apart in the source and are kept apart here.
# What was measured:
# OPM2 = assay: Anti-proliferative effect (CellTiter-Glo, 72 h), OPM2; assay type: cell-based; conditions: OPM2 cells, median, read-out: IC50 antiproliferation assay OPM2 [M] (median)
# Outline: (§1)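 CellTiter-Glo luminescence readout of viability, taken on a time-zero plate at day 0 and on treated plates after 72 h incubation at 37 °C in a humidified incubator. Reagent incubation 10 min before reading.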
# SUDHL5 [1] = assay: Induction of caspase-3/7 activity (Caspase-Glo 3/7), SUDHL5; assay type: cell-based; conditions: caspase-3/7 induction, SUDHL5 cells, 3 h treatment, median
# Outline: (§2)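 Caspase-Glo 3/7 luminescence measured after 3 h compound exposure at 37 °C in SUDHL10 and SUDHL5 cells. EC50 values come from background-corrected signals, with curve bottom set to 1 and plateau set to maximal induction by the reference compound.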
# SUDHL5 [2] = assay: Induction of cytotoxicity (CellTiter-Glo, 5 h), SUDHL5
# SUDHL5 [3] = assay: Anti-proliferative effect (CellTiter-Glo, 72 h), SUDHL5; assay type: cell-based; conditions: SUDHL5 cells, antiproliferation, 72 h incubation, median, read-out: Antiproli SUDHL5 [M] (median)
# Outline: as §1
# MCL-1 = MCL-1 (Homo sapiens, UniProt Q07820); assay: Protein-protein interaction assay MCL-1/Noxa BH3 peptide (MCL-1 assay), TR-FRET; assay type: binding; conditions: MBP-MCL-1 / Noxa BH3-derived peptide, median
# Chain of MCL-1 (Q07820 whole entry): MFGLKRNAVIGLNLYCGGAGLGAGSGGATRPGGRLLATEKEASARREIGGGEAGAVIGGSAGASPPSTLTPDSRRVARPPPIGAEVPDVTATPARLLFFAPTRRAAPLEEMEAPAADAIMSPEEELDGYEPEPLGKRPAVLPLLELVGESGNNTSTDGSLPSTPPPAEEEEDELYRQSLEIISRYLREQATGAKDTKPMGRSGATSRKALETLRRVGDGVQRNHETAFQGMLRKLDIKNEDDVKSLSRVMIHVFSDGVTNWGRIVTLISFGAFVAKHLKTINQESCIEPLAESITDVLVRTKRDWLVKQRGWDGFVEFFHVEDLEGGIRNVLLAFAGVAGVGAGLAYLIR
# Outline: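 MBP-MCL-1 (1 nM final) was preincubated 10 min at 22 °C with compounds (11 concentrations, 0.1 nM–20 μM, duplicates) in Tris pH 7 buffer with NaCl, KF, Tween-20, DTT and BGG. After 1 h at 22 °C in the dark plus overnight at 4 °C, anti-MBP Eu-cryptate/streptavidin-XL665 TR-FRET was read; IC50 came from a 4-parameter fit.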
# A2780 = assay: Anti-proliferative effect (CellTiter-Glo, 72 h), A2780; assay type: cell-based; conditions: A2780 cells, median, read-out: IC50 antiproliferation assay A2780 [M] (median)
# Outline: as §1
# SUDHL10 [4] = assay: Anti-proliferative effect (CellTiter-Glo, 72 h), SUDHL10; assay type: cell-based; conditions: SUDHL10 cells, antiproliferation, 72 h incubation, median, read-out: Antiproli SUDHL10 [M] (median)
# Outline: as §1
# MV-4-11 = assay: Anti-proliferative effect (CellTiter-Glo, 72 h), MV-4-11; assay type: cell-based; conditions: MV-4-11 cells, median, read-out: IC50 antiproliferation assay MV-4-11 [M] (median)
# Outline: as §1
# SUDHL10 [5] = assay: Induction of cytotoxicity (CellTiter-Glo, 5 h), SUDHL10
# SUDHL10 [6] = assay: Induction of caspase-3/7 activity (Caspase-Glo 3/7), SUDHL10; assay type: cell-based; conditions: caspase-3/7 induction, SUDHL10 cells, 3 h treatment, median
# Outline: as §2
# [7] = read-out: Cytotox SUDHL5 [M] (median), SUDHL5 cells, cytotoxicity induction, CellTiter-Glo, 5 h incubation, median
# [8] = read-out: Cytotox SUDHL10 [M] (median), SUDHL10 cells, cytotoxicity induction, CellTiter-Glo, 5 h incubation, median
# [9] = Homo sapiens, SU-DHL10, 5 h, read-out: Cytotox SUDHL10 [M] (median), SUDHL10 cells, cytotoxicity induction, CellTiter-Glo, 5 h incubation, median
# [10] = Homo sapiens, SU-DHL-5, 5 h, read-out: Cytotox SUDHL5 [M] (median), SUDHL5 cells, cytotoxicity induction, CellTiter-Glo, 5 h incubation, median
SMILES,EC50 (SUDHL5 [1]),"IC50 (SUDHL5 [3]; Homo sapiens, SU-DHL-5, 72 h)",IC50 (MCL-1),"IC50 (A2780; Homo sapiens, A2780, 72 h)","IC50 (SUDHL10 [4]; Homo sapiens, SU-DHL10, 72 h)",IC50 (MV-4-11),EC50 (SUDHL10 [6]),"IC50 (MV-4-11; Homo sapiens, MV4-11, 72 h)","EC50 (SUDHL10 [6]; Homo sapiens, SU-DHL10, 3 h)",IC50 (SUDHL5 [3]),IC50 (A2780),IC50 (SUDHL10 [4]),"EC50 (SUDHL5 [1]; Homo sapiens, SU-DHL-5, 3 h)","IC50 (OPM2; Homo sapiens, OPM-2, 72 h)",IC50 (SUDHL5 [2]; [7]),IC50 (SUDHL10 [5]; [8]),IC50 (OPM2),IC50 (SUDHL10 [5]; [9]),IC50 (SUDHL5 [2]; [10])
"Cc1c2c(nn1C)CN(C)CCCn1c(C(=O)O)c(CCCOc3cccc4ccccc34)c3cccc-2c31 (single isomer, unassigned; enantiomer 1) [Example 1-34, 7,10,11-trimethyl-1-[3-(naphthalen-1-yloxy)propyl]-4,5,6,7,8,10-hexahydropyrazolo[3′,4′:7,8][1,5]diazecino[9,10,1-hi]indole-2-carboxylic Acid-N-ethylethanamine Salt (Enantiomer 1)]",4.5 µM,1.31e-05 M,0.00671 µM,> 3.3e-05 M,> 3.3e-05 M,8.89e-06 M,6.15 µM,–,–,–,–,–,–,2.69e-05 M,3.36e-06 M,4.53e-06 M,–,–,–
"CN(C)S(=O)(=O)N1CCN(c2ccc(OCc3nn(C)c4c3-c3cccc5c(CCCOc6cccc7ccccc67)c(C(=O)O)n(c35)CCCCCC4)cc2)CC1 (single isomer, unassigned; enantiomer 1) [Example 1-40, 3-({4-[4-(dimethylsulfamoyl)piperazin-1-yl]phenoxy}methyl)-1-methyl-7-[3-(naphthalen-1-yloxy)propyl]-10,11,12,13,14,15-hexahydro-1H-pyrazolo[4′,3′:4,5]azacycloundecino[3,2,1-hi]indole-8-carboxylic acid-N-ethylethanamine Salt (Enantiomer 1)]",21.6 µM,5.8e-06 M,0.0368 µM,3.95e-06 M,1.93e-06 M,–,> 33 µM,4.94e-06 M,–,–,–,–,–,–,1.69e-05 M,2.3e-05 M,5.38e-06 M,–,–
"Cc1nn(C)c2c1-c1cccc3c(CCCOc4cccc5ccccc45)c(C(=O)O)n(c13)CCCN(c1ccc(N3CCOCC3)cc1)C2 (single isomer, unassigned; enantiomer 1) [Example 1-99, 9,11-Dimethyl-7-[4-(morpholin-4-yl)phenyl]-1-[3-(1-naphthyloxy)propyl]-4,5,6,7,8,9-hexahydropyrazolo[3′,4′:7,8][1,5]diazecino[9,10,1-hi]indole-2-carboxylic Acid (Enantiomer 1)]",9 µM,8.76e-06 M,0.0203 µM,1.12e-05 M,4.63e-06 M,–,13.5 µM,7.19e-06 M,–,–,–,–,–,1.98e-05 M,1.3e-05 M,–,–,1.93e-05 M,–
"CCS(=O)(=O)N1CCN(c2ccc(N3CCCn4c(C(=O)O)c(CCCOc5cccc6ccccc56)c5cccc(c54)-c4c(C)nn(C)c4C3)cc2)CC1 (single isomer, unassigned; enantiomer 1) [Example 1-109, 7-{4-[4-(Ethylsulfonyl)piperazin-1-yl]phenyl}-9,11-dimethyl-1-(3-(1-naphthyloxy)propyl-4,5,6,7,8,9-hexahydropyrazolo[3′,4′:7,8][1,5]diazecino[9,10,1-hi]indole-2-carboxylic Acid (Enantiomer 1)]",7.09 µM,4.55e-06 M,0.0185 µM,8.7e-06 M,4.08e-06 M,–,–,6.94e-06 M,8.86 µM,–,–,–,–,8.14e-06 M,–,–,–,1.48e-05 M,8.44e-06 M
"Cc1c2c(nn1C)CN(C)CCCCn1c(C(=O)O)c(CCCOc3cccc4ccccc34)c3cccc-2c31 (single isomer, unassigned; enantiomer 1) [Example 068, 2,3,14-trimethyl-7-[3-(naphthalen-1-yloxy)propyl]-10,11,12,13,14,15-hexahydro-2H-pyrazolo[3′,4′:8,9][1,6]diazacycloundecino[10,11,1-hi]indole-8-carboxylic Acid (Enantiomer 1)]",1.63 µM,–,0.00442 µM,1.85e-05 M,–,–,11.9 µM,1.69e-05 M,–,2.53e-06 M,> 3.3e-05 M,1.87e-06 M,–,9.82e-06 M,2.25e-06 M,5.02e-06 M,–,–,–
"Cn1nc(COc2ccc(N3CCOCC3)cc2)c2c1COCC=CCn1c(C(=O)O)c(CCCOc3cccc4ccccc34)c3cccc-2c31 (single isomer, unassigned; enantiomer 1) [Example 119, (+)-E/Z)-1-methyl-3-{[4-(morpholin-4-yl)phenoxy]methyl}-7-[3-(naphthalen-1-yloxy)propyl]-1,10,13,15-tetrahydropyrazolo[4′,3′:9,10][1,6]oxazacycloundecino[8,7,6-hi]indole-8-carboxylic Acid (Enantiomer 1)]",–,1.35e-05 M,0.0213 µM,1.21e-05 M,2e-05 M,–,–,8.87e-06 M,22.5 µM,–,–,–,19.5 µM,6.62e-06 M,–,–,–,> 3.3e-05 M,2.85e-05 M
"Cc1c2c(nn1C)CN(C)CCCn1c(C(=O)O)c(CCCOc3cccc4ccccc34)c3cccc-2c31 (single isomer, unassigned; enantiomer 2) [Example 1-35, 7,10,11-trimethyl-1-[3-(naphthalen-1-yloxy)propyl]-4,5,6,7,8,10-hexahydropyrazolo[3′,4′:7,8][1,5]diazecino[9,10,1-hi]indole-2-carboxylic Acid-N-ethylethanamine Salt (Enantiomer 2)]",26.9 µM,–,0.11 µM,–,–,1.96e-05 M,> 33 µM,–,–,2.56e-05 M,> 3.3e-05 M,3.25e-05 M,–,–,2.02e-05 M,1.18e-05 M,> 3.3e-05 M,–,–

# These reach a lower IC50 (MCL-1). Values come first.
EC50 (SUDHL5 [1]),"IC50 (SUDHL5 [3]; Homo sapiens, SU-DHL-5, 72 h)",IC50 (MCL-1),"IC50 (A2780; Homo sapiens, A2780, 72 h)","IC50 (SUDHL10 [4]; Homo sapiens, SU-DHL10, 72 h)",IC50 (MV-4-11),EC50 (SUDHL10 [6]),"IC50 (MV-4-11; Homo sapiens, MV4-11, 72 h)","EC50 (SUDHL10 [6]; Homo sapiens, SU-DHL10, 3 h)",IC50 (SUDHL5 [3]),IC50 (A2780),IC50 (SUDHL10 [4]),"EC50 (SUDHL5 [1]; Homo sapiens, SU-DHL-5, 3 h)",SMILES,"IC50 (OPM2; Homo sapiens, OPM-2, 72 h)",IC50 (SUDHL5 [2]; [7]),IC50 (SUDHL10 [5]; [8]),IC50 (OPM2),IC50 (SUDHL10 [5]; [9]),IC50 (SUDHL5 [2]; [10])
8.86 µM,3.28e-06 M,0.00303 µM,7.06e-06 M,5.31e-06 M,–,–,4.54e-06 M,17.7 µM,–,–,–,–,"CC(C)c1c2c(nn1C)CN(C)CCCn1c(C(=O)O)c(CCCOc3cccc4ccccc34)c3cccc-2c31 (single isomer, unassigned; enantiomer 1) [Example 114, 7,10-dimethyl-1-[3-(naphthalen-1-yloxy)propyl]-11-(propan-2-yl)-4,5,6,7,8,10-hexahydropyrazolo[3′,4′:7,8][1,5]diazecino[9,10,1-hi]indole-2-carboxylic acid (enantiomer 1)]",1.1e-05 M,–,–,–,8.59e-06 M,6.61e-06 M
1.74 µM,–,0.00185 µM,–,–,–,3.43 µM,1.85e-06 M,–,1.32e-06 M,2.71e-05 M,4.47e-06 M,–,"COCc1c2c(nn1C)COCCCCn1c(C(=O)O)c(CCCOc3cccc4ccccc34)c3cccc-2c31 (single isomer, unassigned; enantiomer 2) [Example 101, 3-(methoxymethyl)-2-methyl-7-[3-(naphthalen-1-yloxy)propyl]-2,10,11,12,13,15-hexahydropyrazolo[4′,3′:9,10][1,6]oxazacycloundecino[8,7,6-hi]indole-8-carboxylic acid-N-ethylethanamine Salt (Enantiomer 2)]",4.37e-06 M,2.03e-06 M,4e-06 M,–,–,–
2.52 µM,–,0.00151 µM,–,–,–,2.62 µM,7.2e-07 M,–,7.67e-07 M,6.24e-06 M,1.02e-06 M,–,"CCN(CC)S(=O)(=O)N1CCN(c2ccc(OCc3nn(C)c4c3-c3cccc5c(CCCOc6cccc7ccccc67)c(C(=O)O)n(c35)CCCCOC4)cc2)CC1 (single isomer, unassigned; enantiomer 2) [Example 1-5, 3-({4-[4-(diethysulfamoyl)piperazin-1-yl]phenoxy}methyl)-1-methyl-7-[3-(naphthalen-1-yloxy)propyl]-1,10,11,12,13,15-hexahydropyrazolo[4′,3′:9,10][1,6]oxazacycloundecino[8,7,6-hi]indole-8-carboxylic Acid (Enantiomer 2)]",–,3.2e-06 M,4.77e-06 M,1.13e-06 M,–,–
